These results are taken from the supplement of paper PMC9334596.

For this experiment, the system named is mPer2Luc MEF. Put plainly: PER2::LUC luminescence relative to vehicle control (fold of vehicle); higher = higher PER2::LUC reporter signal. The method, then: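 Secondary dose-response validation of 72 circadian-modulating compounds in mPer2Luc MEFs, threefold dilution series of six doses from 10 uM down to 0.04 uM. PER2::LUC luminescence read at 24 h and 30 h after treatment, normalised to vehicle (DMSO) control.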

[1] abbreviates: time after treatment: 24-hour, concentration: 0.04μM.
Where [2] appears, read: time after treatment: 24-hour, concentration: 0.37μM.
[3] abbreviates: time after treatment: 24-hour, concentration: 3.33μM.
Setting [4] is: time after treatment: 24-hour, concentration: 10μM.
The mark [5] stands for this setting: time after treatment: 30-hour, concentration: 0.04μM.
Setting [6] is: time after treatment: 30-hour, concentration: 0.37μM.
Setting [7] is: time after treatment: 30-hour, concentration: 3.33μM.
Where [8] appears, read: time after treatment: 30-hour, concentration: 10μM.

Counter-ions that a name gives are not always drawn.

For the compound `COc1cc(NS(C)(=O)=O)ccc1Nc1c2ccccc2nc2ccccc12` [Amsacrine], the “PER2::LUC luminescence” value came out at 0.726 under setting [1]; 0.768 under setting [2]; 0.663 under setting [3]; 0.603 under setting [4]; 0.43 under setting [5]; 0.474 under setting [6]. Further, the “PER2::LUC luminescence” value is, setting by setting: under setting [7], 0.379; under setting [8], 0.285.

For `CCc1cc2c(cc1N1CCC(N3CCOCC3)CC1)C(C)(C)c1[nH]c3cc(C#N)ccc3c1C2=O`, the “PER2::LUC luminescence” value reads like this: under setting [1], 0.92; under setting [2], 0.909; under setting [3], 0.957; under setting [4], 0.902; under setting [5], 0.817; under setting [6], 0.859. Further, the “PER2::LUC luminescence” value turned out to be 0.859 under setting [7] and 0.83 under setting [8].

In the case of `CN(C)C/C=C/C(=O)Nc1cc2c(Nc3ccc(F)c(Cl)c3)ncnc2cc1O[C@H]1CCOC1` [BIBW2992 DiMaleate], the “PER2::LUC luminescence” value runs as follows: under setting [1], 0.774; under setting [2], 0.77; under setting [3], 0.48; under setting [4], 0.026; under setting [5], 0.705; under setting [6], 0.696. For the same compound, the “PER2::LUC luminescence” value is, setting by setting: under setting [7], 0.442; under setting [8], 0.028.

In the case of `Cn1cc(/C=C/C(=O)c2cccc(F)c2)cc1/C=C/C(=O)NO` [MC1568], the “PER2::LUC luminescence” value runs as follows: under setting [1], 0.933; under setting [2], 0.956; under setting [3], 0.979; under setting [4], 1.34; under setting [5], 0.907; under setting [6], 0.894. The “PER2::LUC luminescence” value came out at 0.843 under setting [7] and 1.04 under setting [8].

`Cc1cccc(C#Cc2ccccc2)n1` [MPEP Hydrochloride]: the “PER2::LUC luminescence” value turned out to be 1.11 under setting [1]; 1.19 under setting [2]; 1.33 under setting [3]; 1.39 under setting [4]; 1.22 under setting [5]; 1.41 under setting [6]. Besides, the “PER2::LUC luminescence” value runs as follows: under setting [7], 1.57; under setting [8], 1.73.

For `Cc1ccc(NC(=O)Nc2cc(C(F)(F)F)ccc2F)cc1Nc1ccc2c(c1)NC(=O)/C2=C\c1ccc[nH]1` [GNF-5837], the “PER2::LUC luminescence” value reads like this: under setting [1], 1.07; under setting [2], 1.06; under setting [3], 1.15; under setting [4], 0.539; under setting [5], 1.05; under setting [6], 1.05. Further, the “PER2::LUC luminescence” value by setting is: under setting [7], 1.2; under setting [8], 0.751.

For the compound `O=C(/C=C/c1cccnc1)NCCCCC1CCN(C(=O)c2ccccc2)CC1` [FK866], the “PER2::LUC luminescence” value under setting [1] was 0.987; the “PER2::LUC luminescence” value under setting [2] came out at 1.02; the “PER2::LUC luminescence” value under setting [3] was found to be 0.955; the “PER2::LUC luminescence” value under setting [4] came to 0.89; the “PER2::LUC luminescence” value under setting [5] turned out to be 0.67; the “PER2::LUC luminescence” value under setting [6] was determined as 0.643. For the same compound, the “PER2::LUC luminescence” value under setting [7] amounted to 0.595 and the “PER2::LUC luminescence” value under setting [8] came to 0.49.

As for `CCOc1cc(C(=O)N2CCC(N3CCN(C)CC3)CC2)ccc1Nc1ncc2c(n1)N(C1CCCC1)c1ccccc1C(=O)N2C` [XMD17-109], the “PER2::LUC luminescence” value runs as follows: under setting [1], 0.79; under setting [2], 0.698; under setting [3], 0.241; under setting [4], 0.049; under setting [5], 0.796; under setting [6], 0.664. Besides, the “PER2::LUC luminescence” value runs as follows: under setting [7], 0.285; under setting [8], 0.055.

`CN1CCN(C2CCC(n3cc(-c4ccc(Oc5ccccc5)cc4)c4c(N)ncnc43)CC2)CC1` (stereo not drawn): the “PER2::LUC luminescence” value by setting is: under setting [1], 0.613; under setting [2], 0.502; under setting [3], 0.203; under setting [4], 0.006; under setting [5], 0.566; under setting [6], 0.477. Besides, the “PER2::LUC luminescence” value worked out at 0.212 under setting [7] and 0.003 under setting [8].

Consider `COc1cc2c(Oc3ccc4[nH]c(C)cc4c3F)ncnc2cc1OCCCN1CCCC1` [Cediranib], for which the “PER2::LUC luminescence” value reads like this: under setting [1], 0.767; under setting [2], 0.585; under setting [3], 0.35; under setting [4], 0.033; under setting [5], 0.662; under setting [6], 0.496. The “PER2::LUC luminescence” value reads like this: under setting [7], 0.306; under setting [8], 0.019.

On to `O=c1c(-c2ccc(O)cc2)coc2cc(O)ccc12` [Daidzein], for which the “PER2::LUC luminescence” value by setting is: under setting [1], 1.01; under setting [2], 0.97; under setting [3], 1.1; under setting [4], 1.3; under setting [5], 0.995; under setting [6], 1.04. Further, the “PER2::LUC luminescence” value is, setting by setting: under setting [7], 1.11; under setting [8], 1.59.
